The results in this text go back to patent US10407712B2, “Methods, compositions and kits for high throughput kinase activity screening using mass spectrometry and stable isotopes” (President and Fellows of Harvard College, priority 2008, dated 2019).

For one test, the system named is HEK293 cell lysates. The test can be described thus: KAYAK in vitro kinase assay, individual reactions, lysates of starved, insulin- or EGF-stimulated HEK293 cells. The format is biochemical, human. How it is done: For stimulation of HEK293 cells or HeLa lines, cells were treated with insulin (100 nM; 10-30 min) EGF (50 ng/ml; 10 min) or phorbol 12-myristate 13-acetate (PMA; 50 or 100 ng/ml; 10 -30 min) at 37° C. for the indicated times after overnight serum-starvation.
For cell lysis, the media were removed, and cells were washed with ice-cold phosphate-buffered saline (PBS) and lysed with ice-cold lysis buffer (10 mM K2HPO4 pH 7.5, 1 mM EDTA, 10 mM MgCl2, 50 mM β-glycerophosphate, 5 mM EGTA, 0.5% Nonidet P-40, 0.1% Brij 35, 0.1% deoxycholic acid, 1mM sodium orthovanadate, 1mM phenylmethyl-sulfonyl fluoride, 5 μg/ml leupeptin and 5 μg/ml pepstatin A). Lysates were centrifuged at 10,000 rpm for 10 min to remove cell debris, and clear supernatant was used for immunoblotting and in vitro kinase assays. Protein concentration was determined by Bradford assay (Biorad, Hercules, Calif.).
(§1) Peptides were synthesized, purified and quantified as described in Yu et al. 2009 Proc Natl Acad Sci USA 106: 11606-11611, hereby incorporated by reference herein in its entirety. Each substrate peptide (250 pmol) was mixed to a final concentration of 5 μM in the 50 μL reaction mixture. Alternatively, reactions were performed using 6 μg cell lysate aliquotes mixed to a final volume of 20 μl. Cell lysate or other kinase source was added to the substrate mixture in 25 mM Tris-Cl, pH 7.5, containing 5 mM ATP, 7.5 mM MgCl2, 0.2 mM EGTA, 7.5 mM β-glycerophosphate, 0.1 mM Na3VO4, and 0.1 mM DTT. The reaction was incubated at 25° C. for 60 min and then terminated by the addition of 100 μl of 1% trifluoroacetic acid (TFA) containing a known amount of an internal standard (typically 20 pmol). Alternatively, the reaction was incubated at 20° C. for 45 min before termination with TFA.
Forty-five individual in vitro kinase reaction mixtures were combined and desalted by using Sep-Pak C18 cartridge (Waters, Milford, Mass.). Phosphopeptides were enriched by immobilized metal ion chromatography (IMAC) with 20 μl of beads (Phos-Select iron affinity gel; Sigma, St. Louis, Mo.) and subsequently desalted by using Empore C18 solid phase extraction disks (3M, St. Paul, Minn.) as described previously.
Quantitation of the target peptide-internal standard ratios was performed by first constructing the extracted ion chromatogram for the most abundant charge state for each peptide using a ±10 ppm window. Chromatograms were integrated using Qual/Quan browser (Xcalibur 2.0.5, Thermo Fisher, San Jose, Calif.). Since the phosphorylated peptides generated from the in vitro kinase reactions were chemically identical to the internal standards, they were assumed to have the same ionization efficiency. Therefore, the amount of each phosphorylated peptide was calculated by direct ratio to the internal standard level.
To test substrate suitability in a multiplexed assay, the phosphorylation activities were measured using […] of each substrate peptide, 6 μg lysate, and 5 mM ATP in a plate format. Reactions proceeded for 60 minutes followed by acidification and the addition of isotope-labeled reference peptides. After pooling 45 samples, phosphopeptide enrichment was followed by liquid-chromatography (LC) separation and on-line peptide detection by high-resolution mass spectrometry.
The ability of the peptides to report specific changes in kinase activation after pathway stimulation was examined herein. Lysates from HEK293 cells were collected after insulin or EGF treatment and were compared to their activities in the serum-starved state using the KAYAK approach. Western blot analysis of lysates from cells in which the PI3K and MAPK pathways were activated, as indicated by elevated phospho-Akt and phospho-ERK1/2 levels, respectively, is shown in FIG. 1D. […]

The target of another test is T1, recombinant RSK1 (Homo sapiens, UniProt Q15418).
T1 construct: 90 kDa ribosomal S6 kinases 1 (RSK1, 1-735); purchased Cell Signaling Technology (Danvers, Mass.)
The experiment in a line: In vitro peptide phosphorylation by purified RSK. Format: biochemical. Particulars: 100 μM peptide, individually reacted.
Excerpt: Reaction mixture was supplemented with 0.1% BSA. Other conditions were the same as in FIG. 10A.
Purified human active kinases of Akt1 (full length), extracellular signal-regulated kinase 1 (ERK1, 1-379), mitogen-activated protein kinase kinase 1 (MEK1, 1-393), 90 kDa ribosomal S6 kinases 1 (RSK1, 1-735), cAMP-dependent protein kinase (PKA) catalytic subunit-α (PKA Cα, 1-351), protein kinase Cα (PKCα, full length), epidermal growth factor (EGF) receptor (EGFR, 672-1210), platelet-derived growth factor (PDGF) receptor α (PDGFRα, 550-1090), vascular endothelial growth factor (VEGF) receptor 1 (VEGFR1 784-1338), Src (full length), casein kinase 2 (CK2, full length), Aurora A (1-403), AMP-activated protein kinase α1β1γ1 (AMPK α1β1γ1, full length), glycogen synthase kinase-3α (GSK-3α, 1-483) and MAP/microtubule affinity-regulating kinase 1 (MARK 1, full length) were obtained from Cell Signaling Technology (Danvers, Mass.). Cdc2/cyclin B1 (full length) and insulin-like growth factor (IGF)-I receptor (IGFIR, 959-1367) were obtained from Upstate (Temecula, Calif.).
as §1, with “Each substrate peptide (250 pmol) was mixed to a final concentration of 5 μM in the 50 μL reaction mixture.” left out
It was observed that basal phosphorylation of these peptides was not affected by knockdown and likely was the result of remaining RSK isoforms or other basophilic kinases (FIG. 5C).

T1 sequence (Q15418 whole entry): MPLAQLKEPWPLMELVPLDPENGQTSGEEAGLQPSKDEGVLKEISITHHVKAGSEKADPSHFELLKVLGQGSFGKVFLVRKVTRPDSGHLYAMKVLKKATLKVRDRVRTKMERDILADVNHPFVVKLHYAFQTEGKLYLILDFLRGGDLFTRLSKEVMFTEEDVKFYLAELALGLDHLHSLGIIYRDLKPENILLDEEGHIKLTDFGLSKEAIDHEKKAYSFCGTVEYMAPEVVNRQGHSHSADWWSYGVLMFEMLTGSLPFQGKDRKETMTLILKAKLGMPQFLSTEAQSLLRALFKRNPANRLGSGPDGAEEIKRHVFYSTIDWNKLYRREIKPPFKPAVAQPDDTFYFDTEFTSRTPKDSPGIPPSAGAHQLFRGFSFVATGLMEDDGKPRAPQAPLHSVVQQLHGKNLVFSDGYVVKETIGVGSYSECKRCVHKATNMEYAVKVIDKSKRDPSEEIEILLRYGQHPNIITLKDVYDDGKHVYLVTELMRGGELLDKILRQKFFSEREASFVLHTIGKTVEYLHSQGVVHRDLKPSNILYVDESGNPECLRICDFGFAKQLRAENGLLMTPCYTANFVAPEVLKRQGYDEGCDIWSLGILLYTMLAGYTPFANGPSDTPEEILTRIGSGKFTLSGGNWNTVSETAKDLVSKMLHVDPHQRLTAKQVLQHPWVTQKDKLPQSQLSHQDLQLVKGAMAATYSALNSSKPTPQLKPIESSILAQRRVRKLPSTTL

For the sequence “RIRTQSFSLQPFR (The sequence was designed and synthesized) [F6]”, the “E: changed phosphorylation in EGF stimulated condition” value in the test with HEK293 cell lysates (EGF-stimulated compared to starved HEK293 cells) was “++ (A change of more than +4 and −4 fold is indicated by “++” and “−−”, respectively.)”. Further, in the test with HEK293 cell lysates (insulin-stimulated compared to starved HEK293 cells), the “I: changed phosphorylation in insulin stimulated condition” value is “+ (A change of more +2 fold and −2 fold is indicated by “+” and “−”, respectively.)”. For the same sequence, in the test with recombinant RSK1, the “phosphorylation by RSK” value was “strong phosphorylation”.
